What was measured:
[1] = system: E. coli; details: cited from earlier work
[2] = system: E. coli; experiment: Blood culture time to positivity (flip time), bead rescue vs no-rescue control; format: cell-based; details: for Flip time: Bead rescue; for Bead Rescue Flip time / Control Flip time in Days: antibiotic 0.075 mg/L blood
Experimental: (§1) Day 1: Prepare overnight culture of test organism in blood/broth medium (50:50 blood:broth) and incubate at 37° C. in a shaking incubator.
Day 2: Prepare ten-fold serial dilution of overnight culture in blood/broth as required and incubate at 37° C. for 2 h for outgrowth.
Add 5 mL of spiked blood+beads (set 1) and 5 mL of spiked blood/Abx+beads (set 3) to blood culture bottles (BioMerieux SA culture bottle) using a vial adapter (West Pharmaceutical Services, Inc. PA, US).
Remove the adaptor and incubate the blood culture bottles in the automated blood culture cabinet (BacT/ALERT BioMerieux) for up to 5 days.
(§2) Record the “Flip” time of each bottle or bottle result at the end of 5 days incubation. The “Flip” time is when a bottle turns positive as determined by the automated blood culture cabinet, which records time to positivity.
(§3) Day 1: Prepare overnight culture of test organism in blood/broth medium (50:50 blood:broth) and incubate at 37° C. (or 30° C. for C. neoformans) in a shaking incubator.
(or 30° C. for C. neoformans) for 2 h for outgrowth. • Antibiotic added to whole blood (defibrinated horse blood) at required level • Whole blood as no-antibiotic control • Test dilution(s) of organism added to blood+antibiotic or blood only at 10 μL per mL of blood (sufficient prepared for experiment requirements) • 100 μL plate count sample taken (TO sample) • 2-hour incubation (static) at 37° C. (or 30° C. for C. neoformans) • 100 μL plate count sample taken (T2 sample) • 5 mL of spiked blood+abx or blood only added to blood culture bottle (using vial adapter) and incubation started (adapter removed) • 5 mL of spiked blood+abx or blood only (from same source) treated with Momentum Capture Beads as below: • 1. Capture Beads diluted in the relevant Capture Reagent—50 μL beads:700 μL capture reagent per clean-up • 2. 750 μL of diluted beads added to 50 mL conical centrifuge tube • 3. 5 mL of transfer medium added to tube • 4. 5 mL of spiked blood+abx or blood only added to tube • 5. […] Magnetise on V&P magnet for 10 min then remove supernatant • 7. Resuspend beads in 1 mL Detergent-free Wash Buffer (DWB) off magnet and transfer to 2 mL Eppendorf flip-top tube on DynaMag-2 magnet • 8. Magnetise for 3 min then remove supernatant • 9. Resuspend beads in 1 mL Detergent-free Wash Buffer (DWB) off magnet then replace on DynaMag-2 magnet • 10. Magnetise for 3 min then remove supernatant • 11. Resuspend beads in 1 mL DWB, add to new blood culture bottle (using vial adapter) and start incubation (adapter removed)
Momentum Capture Beads diluted in the relevant Capture Reagent—50 μL beads:700 μL capture reagent per clean-up • 2. 750 μL of diluted beads added to 50 mL conical centrifuge tube • 3. 5 mL of transfer medium added to tube • 4. 5 mL of spiked blood+abx or blood only added to tube • 5. […] Magnetise on V&P magnet for 10 min then remove supernatant • 7. Resuspend beads in 1 mL Detergent-free Wash Buffer (DWB) off magnet and transfer to 2 mL Eppendorf flip-top tube on DynaMag-2 magnet • 8. Magnetise for 3 min then remove supernatant • 9. Resuspend beads in 1 mL Detergent-free Wash Buffer (DWB) off magnet then replace on DynaMag-2 magnet • 10. Magnetise for 3 min then remove supernatant • 11. Resuspend beads in 1 mL DWB, add to an unused blood culture bottle (BioMerieux FA+culture bottle) using vial adapter and start incubation (adapter removed)

[3] = system: S. pneumoniae; experiment: as above; format: cell-based; details: for Bead Rescue Flip time / Control Flip time in Days: antibiotic 1 mg/L blood; for Flip time: Bead rescue; for Flip time / Flip time in Days: 12600 cfu/5 ml blood; for Flip time in Days: Control (FA plus bottle)
Experimental: as §3
(or 30° C. for C. neoformans) for 2 h for outgrowth. • Antibiotic added to whole blood (defibrinated horse blood) at required level • Whole blood as no-antibiotic control • Test dilution(s) of organism added to blood+antibiotic or blood only at 10 μL per mL of blood (sufficient prepared for experiment requirements) • 100 μL plate count sample taken (TO sample) • 2-hour incubation (static) at 37° C. (or 30° C. for C. neoformans) • 100 μL plate count sample taken (T2 sample) • 5 mL of spiked blood+abx or blood only added to blood culture bottle (using vial adapter) and incubation started (adapter removed) • 5 mL of spiked blood+abx or blood only (from same source) treated with Momentum Capture Beads as below: • 1. Capture Beads diluted in the relevant Capture Reagent—50 μL beads:700 μL capture reagent per clean-up • 2. 750 μL of diluted beads added to 50 mL conical centrifuge tube • 3. 5 mL of transfer medium added to tube • 4. 5 mL of spiked blood+abx or blood only added to tube • 5. Incubate on ITL TherMix (32.5° C./30 min/1000 rpm—ramped speed protocol) • 6. Magnetise on V&P magnet for 10 min then remove supernatant • 7. Resuspend beads in 1 mL Detergent-free Wash Buffer (DWB) off magnet and transfer to 2 mL Eppendorf flip-top tube on DynaMag-2 magnet • 8. Magnetise for 3 min then remove supernatant • 9. Resuspend beads in 1 mL Detergent-free Wash Buffer (DWB) off magnet then replace on DynaMag-2 magnet • 10. Magnetise for 3 min then remove supernatant • 11. Resuspend beads in 1 mL DWB, add to new blood culture bottle (using vial adapter) and start incubation (adapter removed)
as §2, §1
Momentum Capture Beads diluted in the relevant Capture Reagent—50 μL beads:700 μL capture reagent per clean-up • 2. 750 μL of diluted beads added to 50 mL conical centrifuge tube • 3. 5 mL of transfer medium added to tube • 4. 5 mL of spiked blood+abx or blood only added to tube • 5. Incubate on ITL TherMix (32.5° C./30 min/1000 rpm—ramped speed protocol) • 6. Magnetise on V&P magnet for 10 min then remove supernatant • 7. Resuspend beads in 1 mL Detergent-free Wash Buffer (DWB) off magnet and transfer to 2 mL Eppendorf flip-top tube on DynaMag-2 magnet • 8. Magnetise for 3 min then remove supernatant • 9. Resuspend beads in 1 mL Detergent-free Wash Buffer (DWB) off magnet then replace on DynaMag-2 magnet • 10. Magnetise for 3 min then remove supernatant • 11. Resuspend beads in 1 mL DWB, add to an unused blood culture bottle (BioMerieux FA+culture bottle) using vial adapter and start incubation (adapter removed)
To compare organism capture and rescue from FA plus bottles, on S. pneumoniae in Ceftriaxone. Reproduce experiment by Flayhart et al. 2007 testing antibiotic concentrations of 250, 125 and 94 mg/L and also include concentrations of 50 and 10 mg/L.
In the table below, “control” represents samples processed using FA plus bottles (also referred to as “BC” in the final column) and “bead rescue” refers to samples processed according to the methods of the invention.

[4] = system: Candida albicans; experiment: as above; format: cell-based; details: 4000 cfu/5 mL Blood
Experimental: (§4) Day 1: […] (or 30° C. for C. neoformans) in a shaking incubator. Day 2: […] (or 30° C. for C. neoformans) for 2 h for outgrowth. • Antibiotic added to whole blood (defibrinated horse blood) at required level • Whole blood as no-antibiotic control • Test dilution(s) of organism added to blood+antibiotic or blood only at 10 μL per mL of blood (sufficient prepared for experiment requirements) • 100 μL plate count sample taken (TO sample) • 2-hour incubation (static) at 37° C. […] […] on V&P magnet for 10 min then remove supernatant • 7. […] […] for 3 min then remove supernatant • 9. Resuspend beads in 1 mL Detergent-free Wash Buffer (DWB) off magnet then replace on DynaMag-2 magnet • 10. […] for 3 min then remove supernatant • 11. Resuspend beads in 1 mL DWB, add to new blood culture bottle (using vial adapter) and start incubation (adapter removed) […] The “Flip” time is when a bottle turns positive as determined by the automated blood culture cabinet, which records time to positivity.

[5] = system: Cryptococcus neoformans; experiment: as above; format: cell-based; details: antibiotic 2 mg/L blood; 102200 cfu/5 mL Blood
Experimental: as §4

Structure (SMILES): CO/N=C(\C(=O)N[C@@H]1C(=O)N2C(C(=O)O)=C(COC(C)=O)CS[C@H]12)c1csc(N)n1 [Cefotaxime]
- MIC [1]: ≤1 µg/mL
- Flip time ([2]; Cefotaxime 100 mg/L blood, 50800 cfu/5 mL blood): 0.39 days
- Flip time ([2]; Cefotaxime 100 mg/L blood, 508000 cfu/5 mL blood): 0.31 days
- Flip time in Days ([2]; Control (FA plus bottle), Cefotaxime 100 mg/L blood, 50800 cfu/5 mL blood): Neg
- Flip time in Days ([2]; Control (FA plus bottle), Cefotaxime 100 mg/L blood, 508000 cfu/5 mL blood): Neg

Structure (SMILES): CO/N=C(\C(=O)N[C@@H]1C(=O)N2C(C(=O)O)=C(CSc3nc(=O)c(O)nn3C)CS[C@H]12)c1csc(N)n1 [Celtriaxone]
- Bead Rescue Flip time ([3]; 200 cfu/5 mL Blood): 0.86 days
- Control Flip time in Days ([3]; 200 cfu/5 mL Blood): Neg
- Bead Rescue Flip time ([3]; 10000 cfu/5 mL Blood): 0.71 days
- Control Flip time in Days ([3]; 10000 cfu/5 mL Blood): Neg
- Bead Rescue Flip time ([3]; 100000 cfu/5 mL Blood): 0.68 days
- Control Flip time in Days ([3]; 100000 cfu/5 mL Blood): Neg

Structure (SMILES): O=C(O)c1cn(C2CC2)c2cc(N3CCNCC3)c(F)cc2c1=O [Ciprofloxacin]
- Flip time In Days ([2]; Ciprofloxacin 0.075 mg/L blood, 11400 Cfu/mL (first set, r5-r10), bead rescue with named bead type, antibiotic-labelled line = BC control without beads): Negative
- Flip time In Days ([2]; Ciprofloxacin 0.075 mg/L blood, 11400 Cfu/mL (second set, r11-r16), bead rescue with named bead type, antibiotic-labelled line = BC control without beads): Negative
- Difference (Days) compared to BE ([2]; Ciprofloxacin 0.075 mg/L blood, 380800 Cfu/mL (some rows print 360800), antibiotic-labelled line = BC control without beads): Negative
- Flip time in Days ([2]; Ciprofloxacin 0.075 mg/L blood, 380800 Cfu/mL (some rows print 360800), bead rescue with named bead type, antibiotic-labelled line = BC control without beads): Negative
- Difference (Days) compared to BE ([2]; Ciprofloxacin 0.075 mg/l blood, 11400 Cfu/mL (first set, r5-r10), antibiotic-labelled line = BC control without beads): Negative
- Difference (Days) compared to BE ([2]; Ciprofloxacin 0.075 mg/l blood, 11400 Cfu/mL (second set, r11-r16), antibiotic-labelled line = BC control without beads): Negative
- No-rescue blood culture control result ([2]; Example 23, E. coli in blood containing 0.075 mg/L Ciprofloxacin): negative after 5 days
- Blood culture controls (no bead rescue) result ([2]; Example 24, E. coli in blood containing 0.075 mg/L Ciprofloxacin): negative
- Bead Rescue Flip time ([2]; 100000 cfu/5 mL Blood): 0.68 days
- Control Flip time in Days ([2]; 100000 cfu/5 mL Blood): Neg
- Bead Rescue Flip time ([2]; 1000000 cfu/5 mL Blood): 0.61 days
- Control Flip time in Days ([2]; 1000000 cfu/5 mL Blood): Neg

Structure (SMILES): CO/N=C(\C(=O)N[C@@H]1C(=O)N2C(C(=O)O)=C(CSc3nc(=O)c(=O)[nH]n3C)CS[C@H]12)c1csc(N)n1 [Ceftriaxone]
- Flip time ([3]; Ceftriaxone 10 mg/L blood): 0.46 days
- Flip time ([3]; Ceftriaxone 50 mg/L blood): 0.47 days
- Flip time ([3]; Ceftriaxone 94 mg/L blood): 0.52 days
- Flip time ([3]; Ceftriaxone 125 mg/L blood): 0.49 days
- Flip time ([3]; Ceftriaxone 250 mg/L blood): 0.51 days
- Flip time in Days ([3]; Ceftriaxone 10 mg/L blood): Neg
- Flip time in Days ([3]; Ceftriaxone 50 mg/L blood): Neg
- Flip time in Days ([3]; Ceftriaxone 94 mg/L blood): Neg
- Flip time in Days ([3]; Ceftriaxone 125 mg/L blood): Neg
- Flip time in Days ([3]; Ceftriaxone 250 mg/L blood): Neg

Structure (SMILES): C[C@@H]1[C@H](O)[C@@H](C)/C=C/C=C/C=C/C=C/C=C/C=C/C=C/[C@H](O[C@@H]2O[C@H](C)[C@@H](O)[C@H](N)[C@@H]2O)C[C@@H]2O[C@](O)(C[C@@H](O)C[C@@H](O)[C@H](O)CC[C@@H](O)C[C@@H](O)CC(=O)O[C@H]1C)C[C@H](O)[C@H]2C(=O)O [Amphoteracin B]
- Bead Rescue Flip time ([4]; antibiotic 1 mg/L blood): 1.27 days
- Control Flip time ([4]; antibiotic 1 mg/L blood): 2.22 days
- Bead Rescue Flip time ([4]; antibiotic 2 mg/L blood): 1.85 days
- Control Flip time ([4]; antibiotic 2 mg/L blood): 2.98 days
- Bead Rescue Flip time [5]: 3.14 days
- Control Flip time [5]: 3.7 days

Source: patent publication US20240210394A1, “MICROORGANISM CAPTURE FROM ANTIMICROBIAL-CONTAINING SOLUTION” (MOMENTUM BIOSCIENCE LIMITED, priority 2019, published 2024)
